From PMC11685595, “Measuring plant cysteine oxidase interactions with substrates using intrinsic tryptophan fluorescence” (Scientific Reports, 2024)
Peptide text beside a SMILES is read from it.

How the values were obtained:
AtPCO4.Ni(II) = target: T1, AtPCO4.Ni(II) (Arabidopsis thaliana, UniProt Q9SJI9); test: Plate-based intrinsic Trp fluorescence quenching binding assay, AtPCO4.Ni(II); conditions: 8 µM AtPCO4.Ni(II) (enzyme:metal 1:2), 0-750 µM peptide, anaerobic, 10 min, 25 °C, 50 mM Tris pH 7.5, 0.4 M NaCl, λex/λem 280/350 nm; ± Std. Error of fit, n = 3
T1 construct: His6 (cleaved yes); made in house
Description: (§1) Following affinity purification, the His6-tag was cleaved using TEV protease and the cleaved tag was removed using a HisTrap HP column (GE Healthcare). To remove the active site metal which co-purifies with PCO enzymes, concentrated protein fractions were dialysed into 50 mM Tris (pH 7.5), 0.4 M NaCl, 100 mM EDTA and 10 mM 1,10-Phenanthroline followed by dialysis into 50 mM Tris (pH 7.5), 0.4 M NaCl and 0.1% (w/v) Chelex® 100 resin to remove excess EDTA and 1,10-Phenanthroline. Dialysed protein was then purified with a HiLoad 26/600 Superdex 75 prep grade size exclusion column (GE Healthcare) equilibrated with 50 mM Tris (pH 7.5) and 0.4 M NaCl (herein termed assay buffer). Protein purity was assessed with SDS-PAGE. To check that Fe(II) was removed, activity assays of metal-removed protein were conducted as described previously.
(§2) Metal-removed AtPCO4/5 was incubated with Ni(II) (NiCl2.6H2O, Alfa Aesar) at enzyme:metal, 1:2 ratio and diluted to the desired volume in assay buffer to a final enzyme concentration of 8 µM, termed the enzyme master mix.

AtPCO5.Ni(II) = target: T2, AtPCO5.Ni(II) (Arabidopsis thaliana, UniProt Q9LXT4); test: Plate-based intrinsic Trp fluorescence quenching binding assay, AtPCO5.Ni(II); conditions: 8 µM AtPCO5.Ni(II) (enzyme:metal 1:2), 0-750 µM peptide, anaerobic, 10 min, 25 °C, 50 mM Tris pH 7.5, 0.4 M NaCl, λex/λem 280/350 nm; ± Std. Error of fit, n = 3
T2 construct: His6 (cleaved yes); made in house
Description: as §1, §2

T2 sequence (Q9LXT4 whole entry): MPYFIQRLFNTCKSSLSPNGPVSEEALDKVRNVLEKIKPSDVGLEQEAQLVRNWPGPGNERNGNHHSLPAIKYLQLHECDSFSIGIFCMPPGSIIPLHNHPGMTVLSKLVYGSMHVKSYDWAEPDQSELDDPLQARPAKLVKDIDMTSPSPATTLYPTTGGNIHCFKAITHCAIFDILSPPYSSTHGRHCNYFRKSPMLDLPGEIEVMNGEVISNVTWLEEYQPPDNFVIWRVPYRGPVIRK

- Kd (AtPCO4.Ni(II)): 298 ± 37.7 µM
- Kd (AtPCO5.Ni(II)): 223 ± 10.3 µM
Compound: CC[C@H](C)[C@H](NC(=O)[C@H](C)NC(=O)CNC(=O)CNC(=O)[C@@H](N)CS)C(=O)N[C@@H](CC(C)C)C(=O)N[C@@H](CO)C(=O)N[C@@H](CC(=O)O)C(=O)N[C@H](C(=O)N[C@H](C(=O)N[C@@H](C)C(=O)N1CCC[C@H]1C(=O)N[C@@H](CO)C(=O)N[C@@H](C)C(=O)O)[C@@H](C)CC)[C@@H](C)CC [HRE1_2-15] (H-CGGAILSDIIAPSA-OH)
